The source of these data is patent publication US3950527A, “N-[ω-(4'-(3"-indolyl)-piperidino)-alkyl]-benzamides” (Roussel-UCLAF, priority 1974, dated 1976).

A short description of data set [1]: Antagonism to toxicity of amphetaminic compounds. The class given is in vivo. To be noted: Mus musculus, ip; male mice, intraperitoneal 30 minutes before 15 mg/kg i.p. dexamphetamine sulfate; group mortality at 24 hours; read-out: DE50, Antagonism to toxicity of amphetamines. The method, then: C. Antagonism to toxicity of amphetaminic compounds
This test was determined on groups of 10 male mice in a crystallizer with a 20 cm diameter and a 9 cm height covered with a grill. The animals received an intraperitoneal injection of 15 mg/kg of dexamphetamine sulfate 30 minutes after intraperitoneal administration of the test product. The group mortality was counted 24 hours after the injection of dexamphetamine sulfate and the DE50 dose was determined.

The nature of a further data set: Acute toxicity. To be noted: mouse, in vivo, ip; mice, intraperitoneal, mortality after 48 hours; read-out: DL50, acute toxicity. The method, then:
The acute toxicity was determined by intraperitoneal administration of the test compounds to mice in increasing doses and determination of the mortality after 48 hours to determine the DL50 dose.

Data set [2] has as its system mouse. The data set can be described thus: Traction Test (neurosedative activity). The class given is in vivo. Conditions: ip, 0.5 h, mice, intraperitoneal, 30 minutes after administration, dose at which 50% of the animals do not reestablish themselves in 5 seconds, read-out: DE50, Traction Test. From the text:
This test consisted of suspending a mouse by the front paws from a horizontal metal wire and in a time of less than 5 seconds, the normal mouse will effect a reestablishment by managing to place at least one hind paw on the wire. […]

Data set [3] concerns mouse. Briefly: Chimney Test (neurosedative activity). Conditions: ip, 0.5 h, mice, intraperitoneal, 30 minutes after administration, read-out: DE50, Chimney Test. The class given is in vivo. The protocol: This test consisted of placing a mouse in the end of a glass tube 30 cm long with a diameter adapted to the size of the mouse. The tube was straightened vertically in a rapid manner with the head of the mouse at the base. The normal uprighting time for the mouse in the tube was less than 30 seconds. The test was conducted 30 minutes after intraperitoneal administration of the test product and the DE50 dose was determined and is reported in Table I.

Data set [4] in a line: Antagonism to vomitting provoked by apomorphine. The data set is classed as in vivo. Conditions: Canis lupus familiaris, sc, 0.5 h; dogs, subcutaneous 30 minutes before 0.1 mg/kg s.c. apomorphine hydrochloride; vomitting counted over one half hour; read-out: DE50, antagonism to vomitting provoked by apomorphine. The method, then: C. Antagonism to vomitting provoked by apomorphine
This test was effected on dogs as reported by Chen et al. [J. Pharmac. exp. Therap. Vol. 93 (1950), p. 245-250]. The test product was subcutaneously administered 30 minutes before subcutaneous administration of 0.1 mg/kg of apomorphine hydrochloride. […] The cross tests were repeated after 8 days on lots of 2 dogs and the DE50 dose was determined to be 0.005 mg/kg.

The nature of data set [5]: Antagonism to stereotypes provoked by apomorphine. The class given is in vivo. To be noted: Rattus norvegicus, ip; male rats, intraperitoneal 30 minutes before 1.5 mg intravenous apomorphine hydrochloride; read-out: DE50, antagonism to stereotypes provoked by apomorphine. The method, then:
B. Antagonism to sterotypes provoked by apomorphine
(§1) This test used groups of 5 male rats in a test inspired by Janssen et al. [Arzn. Forsch., Vol. 15 (1965), p. 104-117 and Vol. 17 (1967), p. 841-854] with each rat in an individual grill cage. Each animal received an intravenous injection in the vein of the penis of 1.5 mg of apomorphine hydrochloride 30 minutes after intraperitoneal administration of the test compound. The animals, control and treated, were observed 1,5,10 and 15 minutes after the last injection and the stereotype movements of the buccal sphere were evaluated for their intensity on a scale of 0 to 3 as by Boissier et al. [Therapie., Vol. 25 (1970), p. 939-949]. The height of the test was determined and the DE50 dose was ascertained to be 10 mg/kg.

The next data set in a line: Cataleptic Power. The class given is in vivo, young rats. Conditions: for cataleptic activity (in words): rat, in vivo. The protocol:
D. Cataleptic Power This test is described by Boissier et al. [Therapie., Vol. 18 (1963), p. 1257-1277] and was effected on young rats by crossing the homolateral paws and noting the intensity of catalepsy. The test product was intraperitoneally administered and the DE50 was formed to be greater than 60 mg/kg.

Data set [6] can be described thus: Antipsychotic activity, overall conclusion from the tests on the product of Example 2. Conditions: in vivo. The method, then:
This test consisted of using groups of 5 rats which were placed in individual grill cages. The rats received intraperitoneally 8 mg/kg of dexamphetamine sulfate 30 minutes after intraperitoneal administration of the test products and the test used controls and treated animals. The rating scale was that described by Halliwel et al. [Brit. J. Pharmacol., Vol. 23 (1964), p. 330-350] and the DE50 of the product was […].
as §1
This test was effected on dogs as reported by Chen et al. [J. Pharmac. exp. Therap. Vol. 93 (1950), p. 245-250]. […] The cross tests were repeated after 8 days on lots of 2 dogs and the DE50 dose was determined to be 0.005 mg/kg.

The mark [7] stands for this setting: listed as acid succinate of N-[β-(4'-(3"-indolyl)-piperidino)-ethyl]-4-fluoro-benzamide.

With `O=C(NCCN1CCC(c2c[nH]c3ccccc23)CC1)c1ccccc1` [Example 1, N-[β-(4'-(3"-indolyl)-piperidino)-ethyl]-benzamide], the ED50 in data set [1] came to 3 mg/kg; with mouse [2], 18 mg/kg; with mouse [3] it was 7 mg/kg. The LD50 at 48 h in the data set “Acute toxicity” was 300 mg/kg.
For `O=C(NCCN1CCC(c2c[nH]c3ccccc23)CC1)c1ccc(F)cc1` [Example 2, N-[β-(4'-(3"-indolyl)-piperidino)-ethyl]-p-fluoro-benzamide acid succinate], the ED50 in data set [4] is 5 µg/kg; in data set [1], 0.3 mg/kg; in data set [5], 10 mg/kg; in the data set on mouse [2], 6.5 mg/kg; in the data set with mouse [3], 2 mg/kg; in the data set “Cataleptic Power” (Rattus norvegicus, ip, young rats, intraperitoneal, crossing the homolateral paws, read-out: DE50, cataleptic power), > 60 mg/kg. In addition, the LD50 at 48 h in “Acute toxicity” was 125 mg/kg. Besides, the “cataleptic activity (in words)” value in the data set “Cataleptic Power” was “practically devoid of cataleptigenic activity”; in the data set “Cataleptic Power” (setting [7]), “without cataleptic properties”. The “antipsychotic activity (in words)” value is recorded as “important antipsychotic activity” in data set [6] and “antipsychotic activity” in data set [6] (setting [7]).
Regarding `O=C(NCCCN1CCC(c2c[nH]c3ccccc23)CC1)c1ccc(F)cc1` [Example 3, N-[γ-(4'-(3"-indolyl)-piperidino)-propyl]-p-fluorobenzamide], the ED50 in data set [1] turned out to be 8 mg/kg; with mouse [2] it was 20 mg/kg; in the data set on mouse [3] it was 5 mg/kg. Further, in the data set “Acute toxicity”, the LD50 at 48 h worked out at 60 mg/kg.
In the same order, the values of `COc1cc(F)ccc1C(=O)NCCN1CCC(c2c[nH]c3ccccc23)CC1` [Example 4, N-[β-(4'-(3"-indolyl)-piperidino)-ethyl]-p-fluoro-o-methoxy-benzamide] are 0.35 mg/kg, 8.5 mg/kg, 4.5 mg/kg and > 800 mg/kg.
In the same order, the values of `COc1ccc2c(C3CCN(CCNC(=O)c4ccc(F)cc4)CC3)c(C)[nH]c2c1` [Example 5, N-[β-(4'-(2"-methyl-6"-methoxy-3"-indolyl)-piperidino)-ethyl]-p-fluoro-benzamide] are 3 mg/kg, 25 mg/kg, 17 mg/kg and 400 mg/kg.
On to `COc1cc(N)c(Cl)cc1C(=O)NCCN1CCC(c2c[nH]c3ccccc23)CC1` [Example 7, N-[β-(4'-(3"-indolyl)-piperidino)-ethyl]-2-methoxy-4-amino-5-chloro-benzamide], for which the LD50 at 48 h in the data set “Acute toxicity” was > 800 mg/kg.
For the molecule `COc1ccc(S(N)(=O)=O)cc1C(=O)NCCN1CCC(c2c[nH]c3ccccc23)CC1` [Example 8, N-[β-(4'-(3"-indolyl)-piperidino)-ethyl]-2-methoxy-5-sulfamoyl-benzamide], the LD50 at 48 h in the data set “Acute toxicity” stood at 800 mg/kg.
